The values below come from ChEMBL document CHEMBL2150850, “Recent advances in the development of selective human MAO-B inhibitors: (hetero)arylidene-(4-substituted-thiazol-2-yl)hydrazines” (Eur J Med Chem, 2012).

Data set [1] concerns the target T1, Amine oxidase [flavin-containing] A (Homo sapiens, UniProt P21397).
T1 sequence (P21397 whole entry): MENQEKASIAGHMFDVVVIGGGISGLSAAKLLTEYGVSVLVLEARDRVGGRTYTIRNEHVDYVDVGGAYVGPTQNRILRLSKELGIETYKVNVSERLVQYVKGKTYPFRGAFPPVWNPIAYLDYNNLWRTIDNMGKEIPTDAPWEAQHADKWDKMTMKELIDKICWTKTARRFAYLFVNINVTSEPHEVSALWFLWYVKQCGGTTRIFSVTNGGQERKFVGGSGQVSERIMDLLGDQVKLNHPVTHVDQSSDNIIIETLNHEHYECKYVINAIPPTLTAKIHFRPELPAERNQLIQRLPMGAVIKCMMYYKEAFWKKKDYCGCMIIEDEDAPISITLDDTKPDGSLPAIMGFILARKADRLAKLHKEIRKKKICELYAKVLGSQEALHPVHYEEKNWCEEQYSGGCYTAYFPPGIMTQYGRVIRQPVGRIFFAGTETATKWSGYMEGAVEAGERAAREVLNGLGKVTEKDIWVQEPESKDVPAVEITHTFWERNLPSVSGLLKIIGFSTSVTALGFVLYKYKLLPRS
Description: Inhibition of human MAO-A expressed in baculovirus infected BTI-TN-5B1-4 cells using p-tyramine as substrate incubated for 15 mins prior to substrate addition measured for 15 mins by Amplex red assay.

Data set [2] has as its target T2, Amine oxidase [flavin-containing] B (Homo sapiens, UniProt P27338).
T2 sequence (P27338 whole entry): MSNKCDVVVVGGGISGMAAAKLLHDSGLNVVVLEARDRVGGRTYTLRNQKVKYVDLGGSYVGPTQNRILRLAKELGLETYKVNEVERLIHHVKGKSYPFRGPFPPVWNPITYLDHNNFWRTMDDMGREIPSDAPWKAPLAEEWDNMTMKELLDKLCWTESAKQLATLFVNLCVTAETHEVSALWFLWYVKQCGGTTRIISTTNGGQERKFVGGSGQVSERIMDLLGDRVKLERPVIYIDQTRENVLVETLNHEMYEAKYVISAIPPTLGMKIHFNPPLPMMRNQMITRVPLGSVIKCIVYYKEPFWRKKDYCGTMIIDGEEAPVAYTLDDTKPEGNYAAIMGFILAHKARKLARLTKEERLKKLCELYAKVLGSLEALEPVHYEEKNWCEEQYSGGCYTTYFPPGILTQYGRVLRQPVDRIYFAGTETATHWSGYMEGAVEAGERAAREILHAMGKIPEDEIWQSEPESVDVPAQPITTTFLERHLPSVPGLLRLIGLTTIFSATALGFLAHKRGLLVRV
Description: biochemical. In kind it is cell-based, BTI-TN-5B1-4.
Description: Inhibition of human MAO-B expressed in baculovirus infected BTI-TN-5B1-4 cells using p-tyramine as substrate incubated for 15 mins prior to substrate addition measured for 15 mins by Amplex red assay

Data set [3] is filed under the species Homo sapiens. As to the kind of experiment: Selectivity ratio of IC50 for human MAO-A to IC50 for human MAO-B.
Data set [4] has as its target T1, Amine oxidase [flavin-containing] A. Description: Inhibition of human MAO-A expressed in baculovirus infected BTI-TN-5B1-4 cells using p-tyramine as substrate at 100 uM incubated for 15 mins prior to substrate addition measured for 15 mins by Amplex red assay.
For data set [5], the target named is T2, Amine oxidase [flavin-containing] B. As to the kind of experiment: Reversible inhibition of human MAO-B expressed in baculovirus infected BTI-TN-5B1-4 cells using p-tyramine as substrate at 70 uM incubated for 30 mins prior to substrate addition followed by 100 fold dilution measured for 15 mins by Amplex red assay. As to conditions: bti-tn-5b1-4, 0.25 h; call rule not given here.

The target is the same in data set [6]. Description: Inhibition of human MAO-B expressed in baculovirus infected BTI-TN-5B1-4 cells using p-tyramine as substrate at 100 uM incubated for 15 mins prior to substrate addition measured for 15 mins by Amplex red assay. As to conditions: BTI-TN-5B1-4, human, 0.25 h.
The target is the same in data set [7]. Description: Reversible inhibition of human MAO-B expressed in baculovirus infected BTI-TN-5B1-4 cells using p-tyramine as substrate at 20 nM incubated for 30 mins prior to substrate addition followed by 100 fold dilution measured for 15 mins by Amplex red assay. As to conditions: bti-tn-5b1-4, 0.25 h, 0.02 µM.

Turning to `C/C(=N/Nc1nc(-c2ccc(C#N)cc2)cs1)c1nccs1`, the results for the IC50 in data set [1] and in data set [2] were 2850 nM and 2000 nM, respectively. In addition, the Ratio IC50 in data set [3] is 1.4.
For `C/C(=N/Nc1nc(-c2ccc(C#N)cc2)cs1)c1ccncc1`, in that order: 19100 nM, 436 nM and 44.
On to `N#Cc1ccc(-c2csc(N/N=C\c3ccncc3)n2)cc1`, for which half-maximal inhibition in data set [2] (IC50) required 6750 nM. The “inhibition (INH)” value in data set [4] (human, bti-tn-5b1-4, 0.25 h, 100 µM) is on record as “Not Active”; in data set [5] it was “Active”. Besides, the Ratio IC50 in data set [3] was above 15.
Take `C/C(=N/Nc1nc(-c2ccc(F)cc2F)cs1)c1ccccn1`: the IC50 (in general, the concentration that inhibits the measured activity by half) in data set [1] amounted to 3040 nM. Besides, in data set [6], the inhibition (as a rule, the percentage by which the read-out fell short of the control) at 100 µM worked out at 40%. The Ratio IC50 in data set [3] was below 0.03.
Turning to `Fc1ccc(-c2csc(N/N=C\c3ccco3)n2)c(F)c1`, the IC50 stood at 9110 nM in data set [1] and 217 nM in data set [2]. The Ratio IC50 in data set [3] was 42.
The matching figures for `C/C(=N/Nc1nc(-c2ccc([N+](=O)[O-])cc2)cs1)c1nccs1`: 8970 nM, 366 nM and 24.
For `N#Cc1ccc(-c2csc(N/N=C\c3cccs3)n2)cc1`, in that order: 45000 nM, 153 nM and 294.
For `C/C(=N/Nc1nc(-c2ccc(C#N)cc2)cs1)c1ccccn1`, in that order: 2850 nM, 996 nM and 2.9.
As for `C/C(=N/Nc1nc(-c2ccc(F)cc2F)cs1)c1ccccc1`, the IC50 in data set [1] came to 21200 nM; in data set [2], 90.3 nM. The Ratio IC50 in data set [3] amounted to 235.
Consider `C/C(=N/Nc1nc(-c2ccc(F)cc2)cs1)c1ccccn1`, for which the IC50 in data set [1] amounted to 41700 nM; in data set [2] it was 24.3 nM. The Ratio IC50 in data set [3] turned out to be 1720.
With `C/C(=N/Nc1nc(-c2ccc(F)cc2)cs1)c1cccnc1`, in data set [2], the IC50 is 1.7 nM. Besides, the inhibition at 100 µM in data set [4] (BTI-TN-5B1-4, human, 0.25 h) was determined as 40%. Besides, in data set [3], the Ratio IC50 was above 58800. The “inhibition (INH)” value in data set [7] was “Active”.
As for `C/C(=N/Nc1nc(-c2ccc(F)cc2)cs1)c1ccccc1`, the IC50 is 4180 nM in data set [1] and 351 nM in data set [2]. The Ratio IC50 in data set [3] was 12.
For `C/C(=N/Nc1nc(-c2ccc(F)cc2)cs1)c1ccco1`, the half-inhibitory concentration (IC50) in data set [1] is 5670 nM; in data set [2] it was 320 nM. For the same molecule, the Ratio IC50 in data set [3] worked out at 18.
The matching figures for `Fc1ccc(-c2csc(N/N=C\c3c[nH]c4ccccc34)n2)c(F)c1`: 15300 nM, 529 nM and 29.
For `C/C(=N/Nc1nc(-c2ccc(F)cc2)cs1)c1nccs1`, in that order: 7550 nM, 1210 nM and 6.2.
For `C/C(=N/Nc1nc(-c2ccc([N+](=O)[O-])cc2)cs1)c1ccccn1`, in that order: 38700 nM, 26.7 nM and 1450.
On to `C/C(=N/Nc1nc(-c2ccc(F)cc2F)cs1)c1nccs1`, for which the IC50 in data set [1] worked out at 5460 nM; in data set [2], 13 nM. Besides, in data set [3], the Ratio IC50 was determined as 421.
